Experimental data as given in PubChem BioAssay (NCI).
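Exposure lasted 48 hours, with cells grown in 96-well plates and compounds tested at five concentrations. GI50 = concentration required for 50% inhibition of growth. At the TGI there is no net growth.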

Assays:
Test in all cases: DTP human tumour cell line panel, 48 h
ACHN renal = system: ACHN renal
CCRF-CEM leukemia = system: CCRF-CEM leukemia
OVCAR-8 ovarian = system: OVCAR-8 ovarian
SF-268 CNS = system: SF-268 CNS
SF-295 CNS = system: SF-295 CNS
SF-539 CNS = system: SF-539 CNS
TK-10 renal = system: TK-10 renal
UACC-62 melanoma = system: UACC-62 melanoma
HOP-92 NSCLC = system: HOP-92 NSCLC

Compound	TGI (ACHN renal)	TGI (CCRF-CEM leukemia)	TGI (OVCAR-8 ovarian)	TGI (SF-268 CNS)	TGI (SF-295 CNS)	TGI (SF-539 CNS)	TGI (TK-10 renal)	TGI (UACC-62 melanoma)	TGI (HOP-92 NSCLC)	GI50 (ACHN renal)	GI50 (CCRF-CEM leukemia)	GI50 (HOP-92 NSCLC)	GI50 (OVCAR-8 ovarian)	GI50 (SF-268 CNS)	GI50 (SF-295 CNS)	GI50 (TK-10 renal)	GI50 (UACC-62 melanoma)
CS(=O)(=O)N/N=C/CN1C(=O)c2ccccc2C1=O	> 100 µM	> 100 µM	> 100 µM	> 100 µM	> 100 µM	> 100 µM	> 100 µM	> 100 µM	–	–	–	–	–	–	–	–	–
CCCCOC(=O)C1C(c2ccc(Cl)cc2)NC(c2ccc(Cl)cc2)C(C(=O)OCCCC)S1(=O)=O (stereo not drawn)	> 100 µM	> 100 µM	> 100 µM	> 100 µM	> 100 µM	> 100 µM	> 100 µM	> 100 µM	> 100 µM	–	–	–	–	–	–	–	–
O=c1nc2occc2cn1C1CC(O)C(CO)O1 (stereo not drawn)	> 100 µM	> 100 µM	> 100 µM	> 100 µM	> 100 µM	> 100 µM	> 100 µM	> 100 µM	> 100 µM	–	–	–	–	–	–	–	–
COc1ccc(NC(=O)CCc2cc(-c3ccc(O)c(OC)c3)nc(NC#N)n2)cc1	> 100 µM	> 100 µM	> 100 µM	> 100 µM	> 100 µM	> 100 µM	–	> 100 µM	> 100 µM	–	–	–	–	–	–	–	–
Cc1cc(Br)cc(C)c1NC(=O)C(=O)C(C(=O)c1ccc2ccccc2c1)C1OC(=O)c2ccccc21 (stereo not drawn)	34.7 µM	45.1 µM	22.8 µM	–	14.9 µM	11.2 µM	36.9 µM	29.6 µM	6.9 µM	–	–	–	–	–	–	–	–
COC(=O)C1=C(c2ccc3c(c2)OCO3)O[C@H](c2cc(OC)c(OC)c(OC)c2)[C@H]1COC(C)=O	> 100 µM	> 100 µM	93.6 µM	> 100 µM	11.4 µM	6.91 µM	> 100 µM	47.6 µM	36 µM	–	–	–	–	–	–	–	–
CCN(CC)CCOc1ccc(/C=C(\C#N)c2ccc(OCCN(CC)CC)cc2)cc1	> 58.8 µM	44.2 µM	42.6 µM	53.9 µM	28 µM	20.6 µM	> 91.3 µM	31.9 µM	55.4 µM	–	–	–	–	–	–	–	–
O=C1CN=C(C[N+](=O)[O-])c2ccccc21	> 100 µM	–	> 100 µM	> 100 µM	> 100 µM	> 100 µM	–	–	> 100 µM	–	–	–	–	–	–	–	–
COc1ccc(OC)c(NC(=O)C(=O)NNC(=O)c2sc(NNC(C)=O)nc2C)c1	96.1 µM	45.2 µM	> 100 µM	75.9 µM	> 100 µM	82.3 µM	> 100 µM	81.5 µM	39.2 µM	–	–	–	–	–	–	–	–
O=C1OC(c2ccccc2)=N/C1=C/C=C/c1ccco1	> 100 µM	> 100 µM	> 100 µM	> 100 µM	> 100 µM	> 100 µM	> 100 µM	> 100 µM	> 100 µM	–	–	–	–	–	–	–	–
COC(=O)C12C3C4C1C1C2C3C41C(=O)OC(C)(C)C (stereo not drawn)	> 100 µM	> 100 µM	> 100 µM	> 100 µM	> 100 µM	> 100 µM	> 100 µM	> 100 µM	> 100 µM	–	–	–	–	–	–	–	–
COC(=O)C1=C(C)N(NC(=O)c2ccccc2)C(C)(O)C12CCOC2=O (stereo not drawn)	> 100 µM	> 100 µM	> 100 µM	> 100 µM	> 100 µM	> 100 µM	> 100 µM	> 100 µM	–	–	–	–	–	–	–	–	–
NC(=NCCCOc1ccc(Cl)cc1)Nc1ccc(C(F)(F)F)cc1	7.03 µM	9.75 µM	6.05 µM	15.9 µM	3.28 µM	–	3.66 µM	3.61 µM	4.63 µM	2.27 µM	2.59 µM	0.849 µM	2.18 µM	2.77 µM	1.7 µM	1.73 µM	1.81 µM
Cc1ccc(SC(C)/C=C/NNC2=NC(c3ccccc3)C(c3ccccc3)=NN2)cc1 (stereo not drawn)	> 100 µM	> 100 µM	> 100 µM	> 100 µM	> 100 µM	> 100 µM	> 100 µM	48.7 µM	66.1 µM	–	–	–	–	–	–	–	–
S=C(N/N=C/c1ccco1)NC12CC3CC(CC(C3)C1)C2	> 100 µM	> 100 µM	> 100 µM	> 100 µM	> 100 µM	> 100 µM	> 100 µM	> 100 µM	> 100 µM	–	–	–	–	–	–	–	–
C=C(CCCCC)CN1CCCC1[C@@](C)(O)CC(=O)OCC (stereo partly drawn)	> 100 µM	> 100 µM	> 100 µM	> 100 µM	> 100 µM	> 100 µM	> 100 µM	> 100 µM	> 100 µM	–	–	–	–	–	–	–	–
O=C1c2ccccc2C(=O)C1(Cl)C1(S(=O)(=O)O)c2ccccc2-c2ccccc21	> 100 µM	> 100 µM	> 100 µM	> 100 µM	> 100 µM	> 100 µM	> 100 µM	> 100 µM	> 100 µM	–	–	–	–	–	–	–	–
